Data as given in patent US4368194A, “Pharmacologically active amine boranes” (The United States of America as represented by the …, priority 1981, dated 1983).
Read-outs that look alike come from different tables or passages of the source.

Experiments:
[1] = test system: carrageenan induced edema in mouse foot pads; experiment: Anti-inflammatory screen (carrageenan induced foot edema); format: in vivo, mice; settings: for Anti-inflammatory Screen: mice; for inhibition of the carrageenan induced edema in mouse foot pads: text summary of Table II
Method: CF1 male mice (about 30 g) were administered test drugs at 10 mg/kg in 0.05% polysorbate .80-water intraperitoneally 3 hr and 30 min prior to 0.05 ml of 2% carrageenan in 0.9% saline injected into the plantar surface of the right hind foot. Saline injected into the left hind foot served as a base line. After 3 hr, both feet were excised at the tibiotarsal (ankle) joint according to the modified (Roszkowski et al., J. Pharm. Exp. Ther., 179, 114 1971) method of Winter, resulting in an 87 mg net increase in the weight of the control animals' feet.

CF1 male mice = experiment: Writhing reflex (acetic acid); format: in vivo; settings: for Writhing Reflex: 20 mg/kg intraperitoneally, mice
Method: CF1 male mice were administered test drugs at 20 mg/kg intraperitoneally 20 min (see Hendershat et al., J. Pharmacol Exp. Ther. 125, 237 1959) prior to the administration of 0.5 ml of 0.6% acetic acid (Vingar et al., European J. PHarmacol, 37, 23 1976). After 5 min the number of stretches, characterized by repeated contractures of the abdominal musculature accompanied by extension of the hind limbs, was counted for the next 10 min. The control mice had 78 stretch reflexes per 10 min.

Acid phosphatase [2] = experiment: Lysosomal free acid phosphatase activity, liver homogenate; format: biochemical, rats; settings: 5 μmoles, in vitro; 20 min
Method: (§1) Lysosomal enzymatic assays - Sprague Dawley rats (about 160 g) were sacrificed, the liver excised, and a 10% homogenate (4x) in 0.25 M sucrose and 0.001 M (ethylenedinitrilo) tetra acetic acid, ph 7.2 was prepared.
(§2) Acid phosphatase activity (Gianetto et al., Biochem J., 59, 433 1955) was carried out by incubating with 0.1 Mβ-glycerol phosphate in 0.1 M acetate, pH 5.0 with 5 μmoles of test drugs in 1% carboxymethylcellulose (CMC) for 20 min with liver homogenate and 60 min with resuspended PMNs. Lysosome enzymes were released by 0.02% alkyl phenoxy polyethoxy ethanol-100 to obtain the total enzymatic activity. The reaction was stopped with 10% trichloroacetic acid and the solution centrifuged. Aliquots of the supernatant were assayed for inorganic phophate content by the method of Chen et al., Anal Chem., 28, 1756 (1956). Percent free acid phosphatase was calculated. Cathepsin activity was determined in an analagous manner except the substrate used was 2% azocasein (Schleuning et al., Methods in Enzymology, XLV, 330 1976) in 0.1 M acetate buffer pH 5.0. The supernatant was assayed for acid soluble peptide fragments at 366 nm. Percent free cathepsin activity was calculated.

Cathepsin [3] = experiment: Lysosomal free cathepsin activity, liver homogenate; format: biochemical, rats; settings: 5 μmoles; for Liver % Free Cathepsin Activity, pH5: in vitro, 20 min
Method: as §1, §2

Acid phosphatase [4] = experiment: Lysosomal free acid phosphatase activity, PMNs; format: cell-based; settings: 5 μmoles, in vitro; 60 min
Method: (§3) Polymorphonuclear neutrophils (PMNs) were collected from the peritoneal cavity four hr after the injection of 35 ml of 0.5% oyster glycogen in isotonic saline (Orange et al., J. Exp. Med., 127, 767 1968). The PMNs were centrifuged down at 800 g for 20 min, washed, and resuspended in minumen essential medium (MEM) with 10% fetal calf serum pH 7.4.
as §2

Cathepsin [5] = experiment: Lysosomal free cathepsin activity, PMNs; format: cell-based; settings: 5 μmoles, in vitro; 60 min
Method: as §3, §2

cAMP levels in PMNs = experiment: Cyclic-3',5'-adenosine monophosphate levels (cAMP) in PMNs; format: cell-based
Method: as §3
Isolated PMNs were incubated with test drugs at 5μ moles for 1 hr at 37° C. in MEM at pH 7.4. The reaction was stopped with 6% trichloroacetic acid. The cyclic-3',5'-adenosine monophosphate levels were determined by the radioimmunoassay of Gilman, Proc. Natl. Acad. Sci. (USA), 67, 305 (1970), using 3H(G)-cyclic-3',5'-adenosine monophosphate (39.8 Cu/m mol). Results were calculated in p mole/10^7 PMNs cells.

[6] = target: T1, prostaglandin synthetase from beef seminal vesicle (Bos taurus, UniProt O62664); experiment: Prostaglandin synthetase activity; format: biochemical; settings: 10^-6 M; for inhibition at 1 µM: read-out: inhibition of prostaglandin synthesis; for activity at 1 µM: 1 h, read-out: Prostaglandin Synthesis
T1 construct: purchased; host or cells: beef seminal vesicle
T1 sequence (O62664 25-600): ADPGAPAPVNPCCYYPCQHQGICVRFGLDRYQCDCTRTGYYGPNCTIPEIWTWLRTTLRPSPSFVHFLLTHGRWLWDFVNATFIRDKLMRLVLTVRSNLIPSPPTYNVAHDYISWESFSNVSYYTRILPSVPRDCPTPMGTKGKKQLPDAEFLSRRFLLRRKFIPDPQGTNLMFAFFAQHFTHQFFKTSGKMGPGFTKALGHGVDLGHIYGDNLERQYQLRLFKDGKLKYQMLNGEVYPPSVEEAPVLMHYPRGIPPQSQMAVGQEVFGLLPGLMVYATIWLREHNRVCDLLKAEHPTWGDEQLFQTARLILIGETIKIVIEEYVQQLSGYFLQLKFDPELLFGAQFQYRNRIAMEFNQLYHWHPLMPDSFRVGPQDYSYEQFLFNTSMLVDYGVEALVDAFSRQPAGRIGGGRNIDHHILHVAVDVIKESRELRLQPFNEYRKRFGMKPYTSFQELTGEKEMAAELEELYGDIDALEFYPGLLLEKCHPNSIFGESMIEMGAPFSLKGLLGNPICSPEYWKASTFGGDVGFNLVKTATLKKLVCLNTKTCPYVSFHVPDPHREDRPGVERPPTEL
Method: After 1 hr at 37° C. the reaction was stopped with 1 N HCl and extracted with ethyl ether and evaporated. […] The plates were dried and developed in iodine vapor and with the use of prostaglandin standards the appropriate areas were scraped and counted for ^3 H content. Indometacin was used as a standard at 10^-4 M concentration. Test drugs were used at 10^-6 M.

liver mitochondria [7] = experiment: Oxidative phosphorylation, succinate as substrate; format: biochemical, rats; settings: 5 μmoles; for Oxidative Phosphorylation Succinate State 3: ADP stimulated respiration; for Oxidative Phosphorylation Succinate State 4: basal respiration
Method: (§4) Basal and adenosine diphosphate stimulated respiration on 10% liver homogenates was measured using succinate or αketoglutarate as substrate. See Glatt, et al., supra. The reaction vessel contained sucrose 55μ moles, KCl 22μ moles, K2 HPO4 22μ moles, test compounds at 5μ moles in 1% CMC and sodium succinate 90μ moles or αketoglutarate 60μ moles in a total volume of 1.8 ml. […] The rate of respiration was calculated at μl of O2 consumed/hr/mg wet weight of liver.

liver mitochondria [8] = experiment: Oxidative phosphorylation, α-ketoglutarate as substrate; format: biochemical, rats; settings: 5 μmoles; for Oxidative Phosphorylation α Ketoglutarate State 3: ADP stimulated respiration; for Oxidative Phosphorylation α Ketoglutarate State 4: basal respiration
Method: as §4

in vivo = settings: mouse
Sprague Dawley rats = experiment: Red and white blood cell counts after 3 weeks dosing; format: in vivo; settings: rat, in vivo, ip
Text: Hematocrits were also obtained.

[9] = 1 h, pH 7.4, 5 μmoles, in vitro, read-out: PMNs cAMP Level

| Compound | Anti-inflammatory Screen ([1]; 10 mg/kg × 2 intraperitoneally) | inhibition of the carrageenan induced edema in mouse foot pads [1] | Writhing Reflex (CF1 male mice) | Liver % Free Acid Phosphatase Activity, pH5 (Acid phosphatase [2]) | Liver % Free Cathepsin Activity, pH5 (Cathepsin [3]) | PMNs % Free Acid Phosphatase Activity, pH5 (Acid phosphatase [4]) | PMNs % Free Cathespin Activity, pH5 (Cathepsin [5]) | activity at 5 µmol (cAMP levels in PMNs; [9]) | inhibition at 1 µM [6] | activity at 1 µM [6] | both states 3 and 4 respiration with succinate (liver mitochondria [7]) | Oxidative Phosphorylation Succinate State 3 (liver mitochondria [7]) | Oxidative Phosphorylation Succinate State 4 (liver mitochondria [7]) | Oxidative Phosphorylation α Ketoglutarate State 3 (liver mitochondria [8]) | Oxidative Phosphorylation α Ketoglutarate State 4 (liver mitochondria [8]) | LD50 (in vivo) | also measured |
| --- | --- | --- | --- | --- | --- | --- | --- | --- | --- | --- | --- | --- | --- | --- | --- | --- | --- |
| C[N+](C)([BH2-]C(=O)O)CC[N+](C)(C)[BH2-]C(=O)O [XII, N,N,N^1,N^1 -Tetramethylethylenediamine-bis(carboxyborane)] | 58 % Control | at least 40% | 54 % Control | 69 ± 5 % Control | 23 ± 6 % Control | 84 ± 4 % Control | 52 ± 4 % Control | 155% | > 30% | 60 ± 6% | inhibited | 57 ± 16 % Control | 80 ± 11 % Control | 48 ± 30 % Control | 122 ± 15 % Control | > 1000 mg/kg | inhibition of free proteolytic cathepsin activity of liver (Cathepsin [3]): at least 75%; activation at 5 µmol (cAMP levels in PMNs; 1 h, in vitro incubation, 5 μmoles, read-out: increase of cyclic adenosine monophosphate levels in PMNs): 55%; uncoupling with α-ketoglutarate as substrate (liver mitochondria [8]): uncoupling |
| N#C[BH2-][n+]1ccccc1 [XV, pyridinecyanoborane] |  |  | 80 % Control | 79 ± 3 % Control | 57 ± 4 % Control | 57 ± 4 % Control | 49 ± 7 % Control | 110% | > 30% | 58 ± 3% |  | 57 ± 16 % Control | 124 ± 16 % Control | 52 ± 15 % Control | 112 ± 42 % Control | 25 mg/kg | Anti-inflammatory Screen ([1]; 1/3 dose (of 10 mg/kg × 2)): 83 % Control |
| N#C[BH2-][NH2+]CC[NH2+][BH2-]C#N [XX, Ethylenediamine-bis(cyanoborane)] | 87 % Control |  | 95 % Control | 77 ± 8 % Control | 80 ± 7 % Control | 100 ± 10 % Control | 57 ± 2 % Control |  |  | 81 ± 5% | inhibited | 10 ± 5 % Control | 13 ± 5 % Control | 25 ± 8 % Control | 50 ± 18 % Control | > 150 mg/kg | activity at 5 µmol (cAMP levels in PMNs; 1 h, pH 7.4, read-out: PMNs cAMP Level): 28%; both states 3 and 4 respiration with α-ketoglutarate (liver mitochondria [8]): inhibited |
| [Na{H3 N.BH2 (CN)}6 ]I [Compound X] | 57 % Control | at least 40% | 12 % Control |  |  |  | 0 ± 3 % Control |  |  |  |  |  |  |  |  |  | inhibition of the writhing reflex (CF1 male mice; text summary of Table II): 80%; alteration of the red blood or white blood cell count/cu mm (Sprague Dawley rats): no alteration; PMNs cAMP Level (cAMP levels in PMNs; 5 μmoles, in vitro, 60 min): 361 % Control; increase of cyclic adenosine monophosphate levels in PMNs (cAMP levels in PMNs; in vitro incubation, 5 μmoles): 261%; Prostaglandin Synthesis ([6]; 60 min, 1 µM): 42 ± 5 % Control |
